Measurements taken from EPA's ToxRefDB 2.

Legend:
rat [1] = conditions: Sub-acute repeat dose toxicity, sprague dawley, Oral, Gavage/Intubation, dose end: 28 day, group: systemic
primate [2] = conditions: Sub-acute repeat dose toxicity, Oral, Gavage/Intubation, dose end: 15 day, group: systemic
rabbit = conditions: Sub-acute repeat dose toxicity, Oral, Gavage/Intubation, dose end: 5 day, group: systemic
primate [3] = conditions: Sub-acute repeat dose toxicity; Oral; Gavage/Intubation; dose end: 5 day; group: systemic; systemic / clinical chemistry / alanine aminotransferase (alt/sgpt) / alanine aminotransferase (alt/sgpt) + systemic / clinical chemistry / …
primate [4] = conditions: Sub-acute repeat dose toxicity; Oral; Gavage/Intubation; dose end: 35 day; group: systemic; systemic / in life observation / clinical signs / emesis
primate [5] = conditions: Sub-acute repeat dose toxicity; Oral; Gavage/Intubation; dose end: 8 day; group: systemic; systemic / hematology / neutrophils / neutrophils + systemic / in life observation / body weight / body weight + systemic / in life …
rat [6] = conditions: Sub-acute repeat dose toxicity, Oral, Gavage/Intubation, dose end: 14 day, group: systemic
dog [7] = conditions: Sub-acute repeat dose toxicity; beagle; Oral; Gavage/Intubation; dose end: 5 day; group: systemic; systemic / in life observation / clinical signs / emesis
dog [8] = conditions: Subchronic oral toxicity in nonrodent, beagle, Feed, dose end: 90 day, group: systemic
rat [9] = conditions: Subchronic oral toxicity in rodents, sprague dawley, Feed, dose end: 90 day, group: systemic
mouse [10] = conditions: Carcinogenicity, cd1, Oral, Feed, dose end: 18 month, group: systemic
rat [11] = conditions: Multigenerational reproductive toxicity study, other, Oral, Feed, dose end: 2 generation
mouse [12] = conditions: Subchronic oral toxicity in rodents, cd1, Feed, dose end: 90 day, group: systemic
dog [13] = conditions: Chronic toxicity, beagle, Oral, Feed, dose end: 52 week, group: systemic
rat [14] = conditions: Prenatal developmental toxicity study, other, Oral, Gavage/Intubation, dose end: 16 GD
rat [15] = conditions: Multigenerational reproductive toxicity study, sprague dawley, Oral, Gavage/Intubation, dose end: 2 generation
mouse [16] = conditions: Carcinogenicity; cd1; Oral; Feed; dose end: 18 month; group: systemic; systemic / in life observation / body weight / body weight + systemic / in life observation / body weight / body weight gain
rat [17] = conditions: Subchronic oral toxicity in rodents, sprague dawley, Gavage/Intubation, dose end: 90 day
rat [18] = conditions: Combined chronic toxicity/carcinogenicity, sprague dawley, Oral, Gavage/Intubation, dose end: 104 week
[19] = systemic / hematology / fibrinogen / fibrinogen + systemic / hematology / leukocyte (wbc) count differential / leukocyte (wbc) + systemic / …
[20] = systemic / pathology microscopic / blood / vasculitis + systemic / pathology microscopic / kidney / degeneration + systemic / pathology …
[21] = systemic / clinical chemistry / alanine aminotransferase (alt/sgpt) / alanine aminotransferase (alt/sgpt) + systemic / clinical chemistry / …
[22] = systemic / in life observation / body weight / body weight + systemic / in life observation / clinical signs / abnormal feces + systemic / …
[23] = systemic / in life observation / clinical signs / [other] + systemic / in life observation / clinical signs / abnormal feces + systemic / in…
[24] = systemic / in life observation / clinical signs / abnormal feces + systemic / in life observation / clinical signs / general pallor + …
[25] = systemic / in life observation / clinical signs / nasal discharge + systemic / in life observation / clinical signs / salivation
[26] = systemic / pathology gross / intestine large / dilatation + systemic / pathology gross / intestine small / dilatation + systemic / pathology…
[27] = systemic / pathology microscopic / liver / pigmentation
[28] = systemic / hematology / erythrocyte (rbc) count differential / erythrocyte (rbc) + systemic / hematology / hematocrit (hct) / hematocrit (…
[29] = group: offspring, developmental / offspring survival late / lactation index / lactation index + developmental / offspring survival late / viability index / …
[30] = group: parental, systemic / hematology / methemoglobin / methemoglobin
[31] = group: reproductive, reproductive / reproductive performance / gestational length / gestational length + reproductive / reproductive performance / implantations…
[32] = systemic / hematology / hemoglobin (hgb) / hemoglobin (hgb) + systemic / in life observation / body weight / body weight gain + systemic / …
[33] = systemic / clinical chemistry / alanine aminotransferase (alt/sgpt) / alanine aminotransferase (alt/sgpt) + systemic / pathology microscopic…
[34] = group: developmental, developmental / developmental malformation / bone / malformation, total + developmental / developmental malformation / bone / misshapen + …
[35] = group: maternal, reproductive / reproductive performance / resorptions / resorptions + reproductive / reproductive performance / estrous cycle / corpora …
[36] = group: cholinesterase, cholinesterase / cholinesterase / cholinesterase / plasma cholinesterase (che)
[37] = group: offspring, systemic / in life observation / body weight / offspring (pup) weight
[38] = group: reproductive, reproductive / reproductive performance / estrous cycle / corpora lutea
[39] = group: reproductive, reproductive / reproductive performance / estrous cycle / corpora lutea + reproductive / reproductive performance / fertility / fertility + …
[40] = group: cholinesterase, cholinesterase / cholinesterase / cholinesterase / plasma cholinesterase (che) + cholinesterase / cholinesterase / cholinesterase / brain …
[41] = group: systemic, systemic / in life observation / clinical signs / pupillary function (dilation or constriction)
[42] = group: systemic, systemic / in life observation / clinical signs / pupillary function (dilation or constriction) + systemic / in life observation / body …
[43] = group: cholinesterase, cholinesterase / cholinesterase / cholinesterase / brain cholinesterase (che) + cholinesterase / cholinesterase / cholinesterase / plasma …
[44] = group: cholinesterase, cholinesterase / cholinesterase / cholinesterase / erythrocyte cholinesterase (che)
[45] = group: systemic, systemic / pathology microscopic / liver / adenoma/carcinoma combined

SMILES: CC(C)(O)c1ccc(CNC(=O)c2cccnc2Oc2ccc(F)cc2)cc1
- LOAEL (rat [1]; [19]): > 20 mg/kg/day
- NOAEL (rat [1]; [19]): ≥ 20 mg/kg/day
- LEL (rat [1]; [20]): 1 mg/kg/day
- NEL (rat [1]; [20]): < 1 mg/kg/day
- LOAEL (primate [2]; [21]): > 20 mg/kg/day
- NOAEL (primate [2]; [21]): ≥ 20 mg/kg/day
- LEL (primate [2]; [22]): 3 mg/kg/day
- NEL (primate [2]; [22]): < 3 mg/kg/day
- LOAEL (rabbit; [23]): > 20 mg/kg/day
- NOAEL (rabbit; [23]): ≥ 20 mg/kg/day
- LEL (rabbit; [24]): 1 mg/kg/day
- NEL (rabbit; [24]): < 1 mg/kg/day
- LEL (primate [3]): 20 mg/kg/day
- LOAEL (primate [3]): > 20 mg/kg/day
- NEL (primate [3]): < 20 mg/kg/day
- NOAEL (primate [3]): ≥ 20 mg/kg/day
- LEL (primate [4]): 1 mg/kg/day
- LOAEL (primate [4]): > 1 mg/kg/day
- NEL (primate [4]): < 1 mg/kg/day
- NOAEL (primate [4]): ≥ 1 mg/kg/day
- LEL (primate [5]): 1 mg/kg/day
- LOAEL (primate [5]): > 1 mg/kg/day
- NEL (primate [5]): < 1 mg/kg/day
- NOAEL (primate [5]): ≥ 1 mg/kg/day
- LEL (rat [6]; [25]): 3 mg/kg/day
- NEL (rat [6]; [25]): < 3 mg/kg/day
- LOAEL (rat [6]; [26]): > 30 mg/kg/day
- NOAEL (rat [6]; [26]): ≥ 30 mg/kg/day
- LEL (dog [7]): 10 mg/kg/day
- LOAEL (dog [7]): > 10 mg/kg/day
- NEL (dog [7]): < 10 mg/kg/day
- NOAEL (dog [7]): ≥ 10 mg/kg/day

SMILES: C#CCOc1cc(-n2nc3n(c2=O)CCCC3)c(Cl)cc1Cl [Azafenidin]
- LOAEL (dog [8]; systemic / pathology microscopic / liver / hypertrophy + systemic / pathology microscopic / liver / pigmentation): 2.02 mg/kg/day
- NOAEL (dog [8]; systemic / pathology microscopic / liver / hypertrophy + systemic / pathology microscopic / liver / pigmentation + systemic / clinical …): 0.34 mg/kg/day
- LEL (dog [8]; [27]): 0.34 mg/kg/day
- NEL (dog [8]; [27]): < 0.34 mg/kg/day
- LOAEL (rat [9]; [28]): 71.9 mg/kg/day
- NEL (rat [9]; [28]): 4.02 mg/kg/day
- NOAEL (rat [9]; [28]): 24.2 mg/kg/day
- LEL (rat [9]; systemic / organ weight / kidney / relative to body weight): 24.2 mg/kg/day
- NEL (mouse [10]; systemic / pathology gross / full gross necropsy / proliferation): 4 mg/kg/day
- LOAEL (mouse [10]; systemic / pathology microscopic / liver / adenoma + systemic / pathology microscopic / liver / pigmentation): 39.8 mg/kg/day
- NOAEL (mouse [10]; systemic / pathology microscopic / liver / adenoma + systemic / pathology microscopic / liver / pigmentation + systemic / hematology / mean …): 4 mg/kg/day
- LEL (mouse [10]; systemic / pathology microscopic / liver / adenoma + systemic / pathology microscopic / liver / pigmentation + systemic / pathology gross / …): 39.8 mg/kg/day
- LEL (rat [11]; [29]): 14.5 mg/kg/day
- LOAEL (rat [11]; [29]): 14.5 mg/kg/day
- NEL (rat [11]; [29]): 2.33 mg/kg/day
- NOAEL (rat [11]; [29]): 2.33 mg/kg/day
- LEL (rat [11]; [30]): 0.389 mg/kg/day
- NEL (rat [11]; [30]): < 0.389 mg/kg/day
- LOAEL (rat [11]; group: parental, systemic / in life observation / food consumption / food consumption + systemic / in life observation / mortality / mortality): 78.6 mg/kg/day
- NOAEL (rat [11]; group: parental, systemic / in life observation / food consumption / food consumption + systemic / in life observation / mortality / mortality + systemic / …): 14.4 mg/kg/day
- LEL (rat [11]; [31]): 14.4 mg/kg/day
- LOAEL (rat [11]; [31]): 14.4 mg/kg/day
- NEL (rat [11]; [31]): 2.31 mg/kg/day
- NOAEL (rat [11]; [31]): 2.31 mg/kg/day
- LOAEL (mouse [12]; [32]): 144 mg/kg/day
- NEL (mouse [12]; [32]): 7.94 mg/kg/day
- NOAEL (mouse [12]; [32]): 47.2 mg/kg/day
- LEL (mouse [12]; [27]): 47.2 mg/kg/day
- LOAEL (dog [13]; [33]): 0.86 mg/kg/day
- NOAEL (dog [13]; [33]): 0.3 mg/kg/day
- LEL (dog [13]; systemic / pathology microscopic / liver / cytoplasmic alteration): 0.3 mg/kg/day
- NEL (dog [13]; systemic / pathology microscopic / liver / cytoplasmic alteration + systemic / clinical chemistry / alanine aminotransferase (alt/sgpt) / …): 0.16 mg/kg/day
- LEL (rat [14]; [34]): 24 mg/kg/day
- LOAEL (rat [14]; [34]): 24 mg/kg/day
- NEL (rat [14]; [34]): 16 mg/kg/day
- NOAEL (rat [14]; [34]): 16 mg/kg/day
- LEL (rat [14]; group: maternal, reproductive / reproductive performance / estrous cycle / corpora lutea): 16 mg/kg/day
- LOAEL (rat [14]; group: maternal, reproductive / reproductive performance / resorptions / resorptions): 24 mg/kg/day
- NEL (rat [14]; [35]): 8 mg/kg/day
- NOAEL (rat [14]; [35]): 16 mg/kg/day

SMILES: COC(=O)C=C(C)OP(=O)(OC)OC [Mevinphos]
- LEL (rat [15]; [36]): 0.05 mg/kg/day
- LOAEL (rat [15]; [36]): 0.05 mg/kg/day
- NEL (rat [15]; [36]): < 0.05 mg/kg/day
- NOAEL (rat [15]; [36]): < 0.05 mg/kg/day
- LOAEL (rat [15]; [29]): > 0.5 mg/kg/day
- NOAEL (rat [15]; [29]): ≥ 0.5 mg/kg/day
- LEL (rat [15]; [37]): 0.05 mg/kg/day
- NEL (rat [15]; [37]): < 0.05 mg/kg/day
- NEL (rat [15]; group: parental, systemic / in life observation / clinical signs / ataxia + systemic / in life observation / clinical signs / oral discharge + systemic / in …): 0.1 mg/kg/day
- NOAEL (rat [15]; group: parental, systemic / organ weight / ovary / relative to body weight + systemic / in life observation / body weight / body weight): 0.1 mg/kg/day
- LOAEL (rat [15]; group: parental, systemic / organ weight / ovary / relative to body weight + systemic / organ weight / testes / absolute): 0.5 mg/kg/day
- LEL (rat [15]; group: parental, systemic / organ weight / ovary / relative to body weight + systemic / organ weight / testes / absolute + systemic / in life observation / …): 0.5 mg/kg/day
- NEL (rat [15]; [38]): 0.1 mg/kg/day
- NOAEL (rat [15]; [38]): 0.1 mg/kg/day
- LEL (rat [15]; [39]): 0.5 mg/kg/day
- LOAEL (rat [15]; [39]): 0.5 mg/kg/day
- LEL (mouse [16]): 3.7 mg/kg/day
- LOAEL (mouse [16]): 3.7 mg/kg/day
- NEL (mouse [16]): 1.5 mg/kg/day
- NOAEL (mouse [16]): 1.5 mg/kg/day
- LEL (rat [17]; [36]): 0.056 mg/kg/day
- LOAEL (rat [17]; [36]): 0.056 mg/kg/day
- NEL (rat [17]; [40]): 0.011 mg/kg/day
- NOAEL (rat [17]; [40]): 0.011 mg/kg/day
- LEL (rat [17]; [41]): 0.056 mg/kg/day
- LOAEL (rat [17]; [41]): 0.056 mg/kg/day
- NEL (rat [17]; [42]): 0.011 mg/kg/day
- NOAEL (rat [17]; [42]): 0.011 mg/kg/day
- LOAEL (rat [18]; [43]): 0.35 mg/kg/day
- NOAEL (rat [18]; [43]): 0.025 mg/kg/day
- LEL (rat [18]; [44]): 0.025 mg/kg/day
- NEL (rat [18]; [44]): < 0.025 mg/kg/day
- LEL (rat [18]; [45]): 0.6 mg/kg/day
- LOAEL (rat [18]; [45]): > 0.6 mg/kg/day
- NEL (rat [18]; [45]): 0.35 mg/kg/day
- NOAEL (rat [18]; [45]): ≥ 0.6 mg/kg/day
